Test [1] deals with Cynomolgus monkey ES cells. Description: Alkaline phosphatase activity (ES cell marker) of post-thaw ES cells in culture, fluorometry with 4-methylumbelliferyl phosphate. The class given is cell-based. The following applies: for alkaline phosphatase activity of post-thaw ES cells (successful cryopreservation): 8 days of culture. The method, then: Cynomolgus monkey ES cells were subcultured for 33 passages and dissociated into cell suspension from three 90-mm Petri dishes, and the cell suspension was centrifuged at 1,000 rpm for 5 minutes. The supernatant was removed to obtain a cell precipitate. The cell precipitate was resuspended in 1 ml of a cryopreservation medium containing 20% (V/V) [=22% (W/V)] of DMSO, 40% (V/V) of a serum replacement containing albumin, insulin and transferrin (Knockout Serum Replacement; Invitrogen) [hereinafter referred to as serum replacement (A)] and 40% (V/V) of DMEM:Ham F12=1:1 medium [hereinafter referred to as medium (A)] supplemented with 3 g/l of glucose, 0.5 g/l of CaCl2 0.15 g/l of MgSO4. The cell suspension was transferred to a serum tube, refrigerated to −80° C. at a rate of about 1° C./min in Mr. Frosty is (Nalgen) and then stored in a liquid nitrogen container for about 6 days. The cells were thawed, plated in 60-mm Petri dishes in duplicate and cultured in the medium described in Suemori et al. (2001 Dev. Dyn. Oct; 222(2):273-9). ES cell proliferation was investigated by following the time course of the activity of alkaline phosphatase, which is a marker of ES cells. After 3, 5 and 7 days, the medium was removed from the dishes by aspiration, and the cells were washed with 1 ml of 30 mM Hepes buffer containing 0.1 mg/l of CaCl2 and 0.1 mg/l of MgSO4(7H2O) and treated with 1 ml of 0.2 mM 4-methylumbelliferyl phosphate solution in the same buffer in an incubator at 37° C. for 1 hour. 0.8 ml portions of the reaction mixture were transferred to a 24-well microplate and analyzed by fluorometry at Ex355/Em460. Fluorescence per 1 ml was calculated and plotted. As a control, the alkaline phosphatase activity of the same feeder cells as used during subcultures of ES cells was measured.

Test [2] relates to Cynomolgus monkey ES cells. Description: Cell count per Petri dish of post-thaw ES cell culture after trypsinization. In kind it is cell-based. The method, then: After 2, 4, 6 and 7 days, ES cell proliferation was assessed by alkaline phosphatase assay as described in Example 1. After 7 days of culture, the cells on each Petri dish was dissociated by tripsinization and counted.
(§1) After 2, 4, 6 and 8 days, ES cell proliferation was assessed by alkaline phosphatase assay as described in Example 1. After 8 days of culture, the cells on each Petri dish was dissociated by tripsinization and counted. Colonies of 1 mm or larger formed on the Petri dishes for the respective concentrations were visually counted.
After 2, 4, 6 and 8 days, ES cell proliferation was assessed by alkaline phosphatase assay as described in Example 1. After 8 days of culture, the cells on each Petri dish was dissociated by tripsinization and counted.
After 2, 4 and 6 days of culture, ES cell proliferation was assessed by alkaline phosphatase assay as described in Example 1. After 6 days of culture, the cells on each Petri dish was dissociated by tripsinization and counted.

The subject of test [3] is Cynomolgus monkey ES cells. Description: Post-thaw ES cell colony formation, proliferation to subculturable stage, staining with Vector Red alkaline phosphatase substrate. In kind it is cell-based. The method, then: After completion of the culture, the cells in each Petri dish were fixed with paraformaldehyde and ethanol and stained with Vector Red alkaline phosphatase substrate (Vector Labs).
After completion of the culture, the cells in each Petri dish were fixed with paraformaldehyde and ethanol and stained with vector Red alkaline phosphatase substrate (Vector Labs). […] Similar staining of the feeder cells gave no stained colonies (FIG. 11).
as §1

Test [4] deals with Cynomolgus monkey ES cells. Description: Differentiation potency of cryopreserved ES cells: teratoma formation after intraperitoneal injection into SCID mice. The class given is in vivo. The following applies: Example 3; cells cryopreserved in 20% (V/V) [=22% (W/V)] DMSO, 40% serum replacement (A), 40% medium (A); 10 passages after thawing; 5×10^6 cells i.p. in SCID mice, about 6 weeks. The method, then: Cynomolgus monkey ES cells subcultured for 35 passages were harvested from three 90-mm Petri dishes and treated by a method similar to that employed in Example 1 to give a cell precipitate. The cell precipitate was resuspended in 1 ml of a cryopreservation medium consisting of 20% (V/V) [=22% (W/V)] of DMSO, 40% (V/V) of serum replacement (A), 40% (V/V) of medium (A). The cell suspension was transferred to a serum tube, refrigerated to −80° C. at a rate of about 1° C./min in Mr. Frosty (Nalgen) and stored in a liquid nitrogen container for 5 day. The cells were thawed and continuously subcultured in duplicate in 35-mm Petri dishes in the medium described in Suemori et al. (2001 Dev. Dyn. Oct;222(2);273-9). Differentiation potency was assessed after 10 passages. The cells were dissociated from the Petri dishes, and 5×10^6 cells were suspended in 0.5 ml of a phosphate buffer and intraperitoneally injected into SCID mice. The mice were fed for about 6 weeks, and teratomas were isolated from the abdomen.

The test system of test [5] is embryonic stem cells and embryonic carcinoma cells. The following applies: DMSO concentration of above 1% (W/V); cited from earlier work.
The test system of a further test is chicken lung cells. The following applies: DMSO or glycerin concentrations from 15 to 20%; cited from earlier work.

The values below come from patent US20050026133A1, “Cryopreservation medium for primate embryo stem cells and cryopreservation method” (ASAHI TECHNO GLASS CORPORATION, priority 2002, published 2005).

The structures appear in SMILES notation.

`C[S+](C)[O-]` [DMSO, dimethyl sulfoxide]: the “alkaline phosphatase activity of post-thaw ES cells versus feeder cells” value was “significantly higher alkaline phosphatase activity than the feeder cells” in test [1] (Example 1, cryopreservation medium with 20% (V/V) [=22% (W/V)] DMSO, 40% serum replacement (A), 40% medium (A), stored about 6 days, culture 3, 5, 7 days); “significantly higher alkaline phosphatase activity than the feeder cells” in test [1] (Example 2, 20% (V/V) [=22% (W/V)] DMSO, 40% serum replacement (A), 40% medium (A), stored 1 day, culture 2, 4, 6, 7 days); “slightly exceeded the feeder cells in alkaline phosphatase activity” in test [1] (Example 2 comparative, 10% (V/V) DMSO, 45% serum replacement (A), 45% medium (A), after 7 days). Moreover, the “time course of alkaline phosphatase activity of post-thaw ES cells” value in test [1] (Example 4, DMSO 12, 15, 20 or 30% (V/V) [13.2, 16.5, 22, 33% (W/V)], equal serum replacement (A) and medium (A), 2, 4, 6, 7 days) is “time-dependent increase in alkaline phosphatase activity”. Besides, the “rate of increase of alkaline phosphatase activity versus comparative experiment (10% (V/V) DMSO)” value in test [1] (Example 6, 20% (V/V) DMSO, storage cell densities 1.0, 2.0, 4.0×10^7 cells/2 ml, stored 18 days) is reported as “alkaline phosphatase activity increased faster at any cell densities than in the comparative experiment”; in test [1] (Example 8, 20% (V/V) [=22% (W/V)] DMSO, 20% serum replacement (A), 60% medium (A), 2, 4, 6 days), “increased significantly faster”. Moreover, the “alkaline phosphatase activity of post-thaw ES cells” value in test [1] (Example 7, 20% (V/V) DMSO with 10, 40 or 80% (V/V) serum replacement (A) or fetal bovine serum, 2, 4, 6, 7 days) is “alkaline phosphatase activity increased”. The “cell count per Petri dish in the 7 day culture versus comparative experiment (10% or 50% (V/V) DMSO)” value in test [2] (Example 4, DMSO 15% (V/V) [=16.5% (W/V)] and 20% (V/V) [=22% (W/V)]) is “remarkably greater”. Further, in test [2] (Example 6, 20% (V/V) DMSO, storage cell densities 1.0, 2.0, 4.0×10^7 cells/2 ml), the “cell count per Petri dish after 8 days of culture versus comparative experiment (10% (V/V) DMSO)” value is listed as “greater than that in the comparative experiment”. Further, the “cryopreservation success by cell count per Petri dish after 7 days of culture” value in test [2] (Example 7, 20% (V/V) DMSO with 10, 40 or 80% (V/V) serum replacement (A) or fetal bovine serum) is “Successful cryopreservation was confirmed at any supplement concentrations”. In addition, the “cell count per Petri dish after 6 days of culture, 20% (V/V) DMSO relative to 10% (V/V) DMSO” value in test [2] (Example 8, 20% serum replacement (A), 2.2×10^7 cells/2 ml, stored 1 day) is reported as 6 times. Moreover, the “time after thawing until the cells could be subcultured” value in test [3] (Example 1, 20% (V/V) DMSO, 40% serum replacement (A), 40% medium (A)) is reported as 1 week. Further, the “colonies stained with Vector Red alkaline phosphatase substrate” value is reported as “numerous successfully stained colonies” in test [3] (Example 1, 20% (V/V) DMSO, after completion of the culture); “numerous successfully stained colonies” in test [3] (Example 2, 20% (V/V) DMSO, 7 days after thawing); “a few successfully stained colonies were observed” in test [3] (Example 2 comparative, 10% (V/V) DMSO, 7 days after thawing). The “ES cell proliferation and differentiated colonies after post-thaw passage” value in test [3] (Example 1, 20% (V/V) DMSO, three-fold dilution followed by 3 days of subculture) is reported as “successful proliferation of ES cells was observed without formation of differentiated colonies”. For the same molecule, in test [3] (Example 2, 20% (V/V) DMSO), the “ES cell proliferation and differentiated colonies after 7 days of prolonged culture” value is listed as “successful proliferation of ES cells was observed without formation of differentiated colonies”. Besides, the “time after thawing until the cultures were able to be subcultured” value in test [3] (Example 2, 20% (V/V) DMSO) is on record as 5 days. In test [3] (Example 2 comparative, 10% (V/V) DMSO), the “ES cell proliferation after 7 days of prolonged culture” value is listed as “proliferation was recognized to a certain degree, though far below that of the cells in the illustrative experiment”. The “reaching the subculturable stage after thawing” value in test [3] (Example 2 comparative, 10% (V/V) DMSO, 5 days) is recorded as “could not reach the stage at which they were able to be subcultured after 5 days”. Besides, the “tissues found in teratomas (retention of pluripotency)” value in test [4] is “formation of nerves, muscles and cartilage”. For the same molecule, the “time in culture at which cells begin to differentiate” value in test [5] is 4 days. For the same molecule, the “viability of chicken lung cells” value with chicken lung cells is “did not give high viabilities”.
In the case of `OCC(O)CO` [glycerin], the “alkaline phosphatase activity of post-thaw ES cells (successful cryopreservation)” value in test [1] (Example 5, glycerin 10, 20 or 30% (V/V) [12.6, 25.2, 37.8% (W/V)], 20% serum replacement (A), balance medium (A)) is “increase in alkaline phosphatase activity after 8 days of culture”; in test [1] (Example 5 comparative, glycerin 5% (V/V) [=6.3% (W/V)]), “all the glycerin concentrations but 5% (V/V)”. In addition, the “cell count per Petri dish in the 8 day culture” value in test [2] (Example 5, glycerin 10% (V/V) [=12.6% (W/V)] and 20% (V/V) [=25.2% (W/V)]) is on record as “remarkably great”. Moreover, the “formation of ES cell colonies (1 mm or larger, visually counted)” value in test [3] (Example 5, glycerin 10% (V/V) [=12.6% (W/V)] or above, 8 day culture) is “formation of ES cell colonies was confirmed”. For the same molecule, in the test on chicken lung cells, the “viability of chicken lung cells” value was “did not give high viabilities”.
